These results are taken from publication PMC11173897, “Computational Docking as a Tool in Guiding the Drug Design of Rutaecarpine Derivatives as Potential SARS-CoV-2 Inhibitors” (Molecules, 2024).

What is called IC50 is the concentration that gives 50% inhibition.

Series [1] addresses T1, SARS-CoV-2 3CL protease (Severe acute respiratory syndrome coronavirus 2, UniProt P0DTD1). Description: 3CL protease assay (SensoLyte fluorogenic kit). To be noted: n = 4. The series is classed as biochemical.
Series [2] concerns TNF-α, IL-6 and IL-1β mRNA in RAW264.7 cells. The series is classed as cell-based.
A further series concerns cells. To be noted: MTT assay, Figure S1. A general note: Tetrazolium dyes change colour on reduction, which living cells bring about.
Series [3] deals with T2, S-protein–ACE2 complex (Severe acute respiratory syndrome coronavirus 2, UniProt P0DTC2).
T2 construct: purchased ImmunoDiagnostics Ltd., Hong Kong, China
Description: S-protein-based ELISA (spike–ACE2 binding assay kit). The settings on record: for maximal inhibition, higher than that of RU: S-protein-based ELISA, compared with RU; for IC50: tested at 0.1, 1, 5, 10, 20 µM, n = 4, read-out: IC50, disrupting the S-protein–ACE2 complex. Further details: species or system SARS-CoV-2. From the text:
An S-protein-based ELISA was utilized to determine the binding activities of RU-75 and RU-184 to the S-protein–ACE2 complex. A standard inhibitor, provided by the supplier (calibrated to NIBSC code 20/136), was employed as a positive control (Figure 6A). […] The maximal inhibition, triggered by RU-75 and RU-184, was at least 20% higher than that of RU.
(A) A standard inhibitor, provided by supplier (calibrated to NIBSC code 20/136), was used as a positive control. (B) Rutaecarpine, RU-75 and RU-184 were detected at concentrations of 0.1, 1, 5, 10, 20 µM. The IC50 values are shown.
Spike (S)-protein inhibition was analyzed with the SARS-CoV-2 spike–ACE2 binding assay kit (ImmunoDiagnostics Ltd., Hong Kong, China), according to the manufacturer’s instructions. The reaction was terminated by the addition of 2 M H2SO4, and the data were quantified using a microplate reader (FlexStation; Molecular Devices, San Jose, CA). The percentage of inhibition was calculated as follows:
Percentage of inhibition = (PAvg − SAvg)/PAvg × 100%, where PAvg and SAvg are the mean OD values of the positive control and test sample, respectively.
In general terms: An ELISA detects its analyte on a solid surface through an enzyme-linked reagent.

In series [4] the test system is TNF-α, IL-6 and IL-1β mRNA in RAW264.7 cells. Type of series: cell-based. The settings on record: co-treated with LPS 0.1 µg/mL, 24 h, Figure S2.
In series [5] the target is T2, S-protein–ACE2 complex. To be noted: cited from earlier work.
The subject of series [6] is TNF-α, IL-6 and IL-1β mRNA in RAW264.7 cells. To be noted: previous investigation; cited from earlier work.
The test system of series [7] is wild-type SARS-CoV-2 pseudovirus. To be noted: cited from earlier work.
For series [8], the target named is T1, SARS-CoV-2 3CL protease. The settings on record: cited from earlier work.

For `O=c1c2ccc(Nc3ccccc3)cc2nc2n1CCc1c-2[nH]c2ccccc12` [RU-75], the IC50 came out at 1310 nM against SARS-CoV-2 3CL protease [1] and 1030 nM on S-protein–ACE2 complex [3]. Also, the “production of inflammatory cytokines (TNF-α, IL-6 and IL-1β)” value in series [2] is “significantly reduced”. Also, the “cell toxicity (cell viability)” value in the series on cells is given as “little impact on the cell viability”. Also, at S-protein–ACE2 complex [3], the “maximal inhibition, higher than that of RU” value is given as “at least 20%”. Besides, in series [4], the inflammatory suppression result was “no significant inflammatory suppression”.

Turning to `O=c1c2ccccc2nc2n1CCc1c-2[nH]c2ccccc12` [RU, rutaecarpine], the IC50 against SARS-CoV-2 3CL protease [1] was determined as 1600 nM; at S-protein–ACE2 complex [3], 1260 nM. Besides, on S-protein–ACE2 complex [5], the “formation of the S-protein–ACE2 complex” value is “inhibited the formation of the S-protein–ACE2 complex”. For the same compound, in the series with cells, the “cell toxicity (cell viability)” value was “little impact on the cell viability”. Moreover, the “inflammatory response induced by SARS-CoV-2” value in series [6] is reported as “attenuated the inflammatory response”. Further, the “entry of SARS-CoV-2 into host cells” value in series [7] is on record as “prevented the entry of SARS-CoV-2 into host cells”. For the same compound, on SARS-CoV-2 3CL protease [8], the 3CL protease inhibition result was “inhibit the 3CL protease”.

In turn, `O=C1c2ccc(Nc3ccccc3)cc2NC2=NCCc3c2n1c1ccccc31` [RU-184] yielded an IC50 at SARS-CoV-2 3CL protease [1] of 1030 nM. For the same compound, the “production of inflammatory cytokines (TNF-α, IL-6 and IL-1β)” value in [2] is on record as “significantly reduced”. Also, the “cell toxicity (cell viability)” value with cells was “little impact on the cell viability”. Moreover, on S-protein–ACE2 complex [3], the “maximal inhibition, higher than that of RU” value is recorded as “at least 20%” and the IC50 is 780 nM. For the same compound, the inflammatory suppression result in series [4] is “no significant inflammatory suppression”.
